Tested on: Porcine epidermis
Assay: moisturization efficacy test: weight change of porcine skin with relative humidity on an environmental microbalance
Settings: difference in percent weight change, treated minus untreated skin, 1% active material in water solution; for From 0 to 80 to 20% Relative Humidity: 90 minutes at 20% relative humidity after 80% (water retained); for From 0 through 80% Relative Humidity: 90 minutes at 80% relative humidity (water picked up)
Description: This Example provides the results of moisturization efficacy tests. These tests involved evaluation on Porcine epidermis utilized as a human skin model. Equipment and protocol are outlined below. An environmental microbalance (Model MB-300W, VTI Corp., 2708 W 84th Street, Hialeah, Fla. 33016) was programmed to measure the change in weight of porcine skin as a function of relative humidity at a constant temperature and air flow. The porcine skin was evaluated before and after treatment with aqueous solutions of humectants to determine adsorption and retention of moisture. Sample preparation was done as follows: • Epidermal sections of porcine skin were cut to approximately 4 cm×1 cm. • The skin was washed in a 10% detergent solution and dried in a dessicator to a constant weight. This represents the Untreated material. • The skin was soaked in a 1% by weight aqueous solution of the test sample for 15 minutes, excess fluid was blotted off and the skin was dried to constant weight in a dessicator. This represents the Treated material. Sequence of conditions for the microbalance was as follows: • 30 minutes at 0% relative humidity. (Insures that sample is dry.) • 90 minutes at 80% relative humidity. […] (Determines amount of water retained.) The experiments were conducted as follows: • The weight of a piece of untreated skin was recorded continuously during the sequence. • The piece of untreated skin was treated with the test sample. • The weight of the treated piece of skin was recorded continuously during the sequence. • Data reduction consisted of calculating the percent weight change from the initial weight for the untreated and treated pieces of skin. The reported data was the difference between each treated piece and its corresponding untreated piece.

In the case of `OCC(O)CO` [Glycerin], the “From 0 to 80 to 20% Relative Humidity” value is reported as 0.10 and the “From 0 through 80% Relative Humidity” value is reported as 0.21.

In the case of `C[N+](C)(C)CC(O)CCl.[Cl-]` (stereo not shown) [Quat ® 188, 3-chloro-2-hydroxypropyl trimethylammonium chloride], the “From 0 to 80 to 20% Relative Humidity” value is reported as 0.10 and the “From 0 through 80% Relative Humidity” value is reported as 0.21.

Source: patent US20060088496A1, “Personal care compositions with salts of hydroxypropyl trialkylammonium substituted mono-saccharide” (Unilever Home & Personal Care USA, Division of Conopco, Inc., priority 2004, published 2006)
